The nature of data set [1]: Half life in human liver microsomes. The format is ADME, Microsome. On the technique in general: Liver microsomes are vesicles of endoplasmic reticulum, rich in cytochrome P450 enzymes.
Data set [2] in a line: Half life in rat liver microsomes. The format is ADME, Microsome.
Data set [3] in a line: Solubility of the compound after 24 hrs at pH 7.2. Conditions: buffer. Type of data set: physicochemical.
Data set [4] is described as follows: Oral bioavailability in rat at 5 mg/kg. Type of data set: ADME, organism-based. As to conditions: in vivo.
The nature of data set [5]: AUC (0 to infinity) in rat at 5 mg/kg, po. The format is ADME, organism-based. Further details: time infinity, dose 5 mg/kg, route oral. As to conditions: plasma.
Data set [6] in a line: Volume of distribution at steady state in rat at 2 mg/kg, iv. As to conditions: in vivo, read-out: Vdss. The format is ADME, organism-based. Details: dose 2 mg/kg, route intravenous.
Data set [7] in a line: Total clearance in rat at 2 mg/kg, iv. Type of data set: ADME, organism-based. Further details: dose 2 mg/kg, route intravenous. As to conditions: in vivo.
Data set [8] can be described thus: Plasma concentration in rat at 5 mg/kg, po after 6 hrs. Type of data set: ADME, organism-based. Details: dose 5 mg/kg, route oral.
Data set [9] in a line: Drug uptake in rat liver at 5 mg/kg, po after 6 hrs. Type of data set: ADME, organism-based. Further details: dose 5 mg/kg, route oral. Conditions: read-out: Drug uptake.
Data set [10] in a line: Cmax in rat at 5 mg/kg, po. The format is ADME, organism-based. Further details: dose 5 mg/kg, route oral. Conditions: in vivo.
Data set [11] is described as follows: Half life in rat at 2 mg/kg, iv. Type of data set: ADME, organism-based. Further details: dose 2 mg/kg, route intravenous. Conditions: in vivo.
Data set [12] in a line: Ratio of drug level in rat liver to plasma at 5 mg/kg, po after 6 hrs. The format is ADME, organism-based. Further details: dose 5 mg/kg, route oral.

Molecules are shown by their SMILES. In brackets after ≈: the same amount, converted by molar mass. Bounds are passed on as bounds.

One may read the half-life as how long it takes for the measured level to halve. High values mean slow loss, low ones fast loss. The term solubility denotes how much of the substance goes into solution per volume. Regarding `C=C[C@@H]1C[C@]1(NC(=O)[C@@H]1C[C@@](OC)(c2ccc(-c3cscn3)cc2)CN1C(=O)[C@@H](NC(=O)OC1CCCC1)C(C)(C)C)C(=O)NS(=O)(=O)C1CC1`, the values for the half-life in data set [1] and in [2] were 0.9 h and 3.67 h, respectively. Also, in data set [3], the solubility at 24 h was 540 µg/mL (≈ 728 µM).

As for `C=C[C@@H]1C[C@]1(NC(=O)[C@@H]1C[C@@](OC)(c2ccc(-c3ccccc3)nc2)CN1C(=O)[C@@H](NC(=O)OC1CCCC1)C(C)(C)C)C(=O)NS(=O)(=O)C1CC1`, the half-life in [1] was 1.45 h; in [2] it was 2 h. In data set [3], the solubility at 24 h stood at 600 µg/mL (≈ 815 µM).

With `C=C[C@@H]1C[C@]1(NC(=O)[C@@H]1C[C@@](OC)(c2ccc(-c3nccs3)nc2)CN1C(=O)[C@@H](NC(=O)OC1CCCC1)C(C)(C)C)C(=O)NS(=O)(=O)C1CC1`, in data set [1], the half-life was 2.28 h. Further, in data set [3], the solubility at 24 h was over 920 µg/mL.

As to `C=C[C@@H]1C[C@]1(NC(=O)[C@@H]1C[C@@](OC)(c2ccc(-c3cc(C)ccc3OC)nc2)CN1C(=O)[C@@H](NC(=O)OC1CCCC1)C(C)(C)C)C(=O)NS(=O)(=O)C1CC1`, the values for the half-life in data set [1] and in [2] were 1.4 h and 1.42 h, respectively. In data set [3], this compound came in with a solubility at 24 h of 310 µg/mL (≈ 397 µM).

As a reminder, the bioavailability is dose-corrected exposure relative to a reference, in per cent. A higher bioavailability goes with good availability. By AUC(0-inf) is commonly meant the area under the concentration-time curve extrapolated to infinity. A higher AUC(0-inf) goes with more exposure. In general, clearance refers to the rate of elimination divided by the concentration. A higher clearance goes with efficient removal. As usually defined, the Cmax is the highest concentration seen after dosing. One may read the Kp as the ratio of the level in a tissue or fluid to that in plasma or blood. As for `C=C[C@@H]1C[C@]1(NC(=O)[C@@H]1C[C@@](OC)(c2ccc(-c3ccccc3)cc2)CN1C(=O)[C@@H](NC(=O)OC1CCCC1)C(C)(C)C)C(=O)NS(=O)(=O)C1CC1`, the half-life in data set [1] was 1.18 h; in [2] it was 1.98 h; in data set [11], 2.94 h. In data set [4], this compound had a bioavailability of 33%. Besides, in [5], the area under the curve AUC(0-inf) was 1.32 µM·h. In addition, the Vd in data set [6] was determined as 3.04 L/kg. Besides, the clearance in data set [7] was found to be 28 mL/min/kg. For the same compound, the concentration at 6 h in [8] turned out to be 50 nM; in data set [9], 2300 nM. Moreover, the Cmax in data set [10] is 320 nM. In data set [3], this compound yielded a solubility at 24 h of 43 µg/mL (≈ 58.5 µM). For the same compound, the Kp at 6 h in data set [12] is 45.

As to `C=C[C@@H]1C[C@]1(NC(=O)[C@@H]1C[C@@](OC)(c2ccc(-c3ccccc3OC)cc2)CN1C(=O)[C@@H](NC(=O)OC1CCCC1)C(C)(C)C)C(=O)NS(=O)(=O)C1CC1`, the half-life in [1] was 0.717 h. In [3], this compound registered a solubility at 24 h of 36 µg/mL (≈ 47.1 µM).

For `C=C[C@@H]1C[C@]1(NC(=O)[C@@H]1C[C@@](OC)(c2ccc(-c3cccc(OC)c3)cc2)CN1C(=O)[C@@H](NC(=O)OC1CCCC1)C(C)(C)C)C(=O)NS(=O)(=O)C1CC1`, the half-life in data set [1] came out at 1.12 h. Also, the solubility at 24 h in data set [3] amounted to 19 µg/mL (≈ 24.8 µM).

Consider `C=C[C@@H]1C[C@]1(NC(=O)[C@@H]1C[C@@](OC)(c2ccc(-c3ccc(OC)cc3)cc2)CN1C(=O)[C@@H](NC(=O)OC1CCCC1)C(C)(C)C)C(=O)NS(=O)(=O)C1CC1`, for which the half-life was found to be 0.85 h in [1] and 1.4 h in data set [2]. Besides, the solubility at 24 h in data set [3] came to 17 µg/mL (≈ 22.2 µM).

Consider `C=C[C@@H]1C[C@]1(NC(=O)[C@@H]1C[C@@](OC)(c2ccc(-c3cccnc3)cc2)CN1C(=O)[C@@H](NC(=O)OC1CCCC1)C(C)(C)C)C(=O)NS(=O)(=O)C1CC1`, for which the values for the half-life in data set [1] and in data set [2] were 0.883 h and 2.17 h, respectively. The solubility at 24 h in data set [3] is 940 µg/mL (≈ 1280 µM).

With `C=C[C@@H]1C[C@]1(NC(=O)[C@@H]1C[C@@](OC)(c2ccc(-c3ccncc3)cc2)CN1C(=O)[C@@H](NC(=O)OC1CCCC1)C(C)(C)C)C(=O)NS(=O)(=O)C1CC1`, the figures for the half-life in [1] and in data set [2] were 1.32 h and 1.83 h, respectively. In data set [3], this compound gave a solubility at 24 h of over 790 µg/mL.

In [1], `C=C[C@@H]1C[C@]1(NC(=O)[C@@H]1C[C@@](OC)(c2ccc(-c3ccc(C)cn3)cc2)CN1C(=O)[C@@H](NC(=O)OC1CCCC1)C(C)(C)C)C(=O)NS(=O)(=O)C1CC1` came in with a half-life of 0.917 h.

Turning to `C=C[C@@H]1C[C@]1(NC(=O)[C@@H]1C[C@@](OC)(c2ccc(-c3cnn(C)c3)cc2)CN1C(=O)[C@@H](NC(=O)OC1CCCC1)C(C)(C)C)C(=O)NS(=O)(=O)C1CC1`, the half-life was 1.37 h in data set [1] and 2 h in data set [2]. The same compound returned a solubility at 24 h in [3] of 540 µg/mL (≈ 731 µM).

In the case of `C=C[C@@H]1C[C@]1(NC(=O)[C@@H]1C[C@@](OC)(c2ccc(-c3nccs3)cc2)CN1C(=O)[C@@H](NC(=O)OC1CCCC1)C(C)(C)C)C(=O)NS(=O)(=O)C1CC1`, the half-life in [1] and in [2] was 1.1 h throughout. The compound further displayed a solubility at 24 h in data set [3] of 452 µg/mL (≈ 609 µM).

These data come from ChEMBL document CHEMBL2401691, “Synthesis and optimization of a novel series of HCV NS3 protease inhibitors: 4-arylproline analogs” (Bioorg Med Chem Lett, 2013).
